Two molecules from ChEMBL document CHEMBL5608235, “Tricyclic Benzo[1,3]oxazinyloxazolidinones as Potent Antibacterial Agents against Drug-Resistant Pathogens” (J Med Chem, 2024) can be followed below.

Series [1] relates to Mycobacterium tuberculosis. Briefly: Antibacterial activity against Mycobacterium tuberculosis H37Rv assessed as inhibition of bacterial growth incubated for 7 days by alamar blue assay. The format is functional. The following applies: 168 h, time 7 day.
Series [2] has as its system Staphylococcus aureus. Description: Antibacterial activity against Staphylococcus aureus ATCC25923 assessed as inhibition of bacterial growth incubated for 18 hrs by microdilution broth assay. The class given is functional.
The subject of series [3] is Enterococcus faecalis. Description: Antibacterial activity against Enterococcus faecalis ATCC29212 assessed as inhibition of bacterial growth incubated for 18 hrs by microdilution broth assay. The format is functional.
Another series concerns Bacillus subtilis. Briefly: Antibacterial activity against Bacillus subtilis ATCC6633 assessed as inhibition of bacterial growth incubated for 18 hrs by microdilution broth assay. The format is functional.
The test system of series [4] is Staphylococcus epidermidis. Description: Antibacterial activity against Staphylococcus epidermidis ATCC12228 assessed as inhibition of bacterial growth incubated for 18 hrs by microdilution broth assay. The class given is functional.
Series [5] in a line: Cytotoxicity against African green monkey Vero cells incubated for 48 hrs by MTT assay. The class given is toxicity, cell-based, Chlorocebus sabaeus.
Series [6] relates to Staphylococcus aureus. Description: Antibacterial activity against methicillin resistant Staphylococcus aureus clinical isolate 20-1 assessed as inhibition of bacterial growth incubated for 7 days by alamar blue assay. The format is functional. The following applies: clinical isolate 20-1, 168 h, time 7 day.
The test system of series [7] is Staphylococcus aureus. Briefly: Antibacterial activity against methicillin resistant Staphylococcus aureus clinical isolate 20-2 assessed as inhibition of bacterial growth incubated for 7 days by alamar blue assay. As to conditions: clinical isolate 20-2, 168 h, time 7 day. The class given is functional.
Series [8] relates to Staphylococcus epidermidis. Description: Antibacterial activity against methicillin resistant Staphylococcus epidermidis clinical isolate 20-1 assessed as inhibition of bacterial growth incubated for 7 days by alamar blue assay. The format is functional. As to conditions: clinical isolate 20-1, 168 h, time 7 day.
In series [9] the test system is Staphylococcus epidermidis. Description: Antibacterial activity against methicillin resistant Staphylococcus epidermidis clinical isolate 20-2 assessed as inhibition of bacterial growth incubated for 7 days by alamar blue assay. The format is functional. The following applies: clinical isolate 20-2, 168 h, time 7 day.
Series [10] concerns Staphylococcus aureus. Description: Antibacterial activity against vancomycin intermediate Staphylococcus aureus ATCC700699 assessed as inhibition of bacterial growth incubated for 7 days by alamar blue assay. The following applies: ATCC700699, 168 h, time 7 day. The class given is functional.
The next series relates to Enterococcus. Briefly: Antibacterial activity against vancomycin resistant Enterococcus clinical isolate 20-1 assessed as inhibition of bacterial growth incubated for 7 days by alamar blue assay. The class given is functional. As to conditions: clinical isolate 20-1, 168 h, time 7 day.
Series [11] concerns Staphylococcus aureus. Description: Antibacterial activity against Linezolid resistant Staphylococcus aureus clinical isolate 20-1 assessed as inhibition of bacterial growth incubated for 7 days by alamar blue assay. The following applies: clinical isolate 20-1, 168 h, time 7 day. The format is functional.
Series [12] has as its system Staphylococcus aureus. Description: Antibacterial activity against Linezolid resistant Staphylococcus aureus clinical isolate 20-2 assessed as inhibition of bacterial growth incubated for 7 days by alamar blue assay. The format is functional. The following applies: clinical isolate 20-2, 168 h, time 7 day.
Series [13] deals with Enterococcus faecalis. Briefly: Antibacterial activity against Linezolid resistant Enterococcus faecalis clinical isolate 20-1 assessed as inhibition of bacterial growth incubated for 7 days by alamar blue assay. The class given is functional. The following applies: clinical isolate 20-1, 168 h, time 7 day.
Series [14] relates to Enterococcus faecalis. Briefly: Antibacterial activity against Linezolid resistant Enterococcus faecalis clinical isolate 20-2 assessed as inhibition of bacterial growth incubated for 7 days by alamar blue assay. The format is functional. The following applies: clinical isolate 20-2, 168 h, time 7 day.
A short description of series [15]: Metabolic stability in ICR mouse liver microsomes assessed as compound remaining at 10 uM incubated for 60 mins in absence of NADPH by LC-MS/MS analysis. The format is ADME, Microsome. The following applies: read-out: Stability.
Series [16] can be described thus: Metabolic stability in human liver microsomes assessed as compound remaining at 10 uM incubated for 60 mins in absence of NADPH by LC-MS/MS analysis. As to conditions: read-out: Stability. The format is ADME, Microsome.
Series [17] is described as follows: Metabolic stability in ICR mouse liver microsomes assessed as substrate remaining at 10 uM incubated for 60 mins in presence of NADPH by LC-MS/MS analysis. The class given is ADME, Microsome. As to conditions: read-out: Stability.
The nature of series [18]: Metabolic stability in human liver microsomes assessed as substrate remaining at 10 uM incubated for 60 mins in presence of NADPH by LC-MS/MS analysis. The class given is ADME, Microsome. The following applies: read-out: Stability.
Series [19] in a line: Terminal half life in BALB/c mouse at 1 mg/kg,iv administration measured upto 24 hrs by LC-MS/MS analysis. The following applies: in vivo, read-out: beta t1/2 (converted). The class given is ADME, organism-based.
Series [20] in a line: Terminal half life in BALB/c mouse at 10 mg/kg,po administration measured upto 24 hrs by LC-MS/MS analysis. The class given is ADME, organism-based. The following applies: in vivo, read-out: beta t1/2 (converted).
The nature of series [21]: Cmax in BALB/c mouse at 1 mg/kg,iv administration measured upto 24 hrs by LC-MS/MS analysis. As to conditions: in vivo. The format is ADME, organism-based.
Series [22] in a line: Cmax in BALB/c mouse at 10 mg/kg,po administration measured upto 24 hrs by LC-MS/MS analysis. The following applies: in vivo. The class given is ADME, organism-based.
Series [23] can be described thus: AUC (0 to t) in BALB/c mouse at 1 mg/kg,iv administration measured upto 24 hrs by LC-MS/MS analysis. The following applies: in vivo. The format is ADME, organism-based.
The nature of series [24]: AUC (0 to t) in BALB/c mouse at 10 mg/kg,po administration measured upto 24 hrs by LC-MS/MS analysis. The format is ADME, organism-based. The following applies: in vivo.
The nature of series [25]: AUC (0 to infinity) in BALB/c mouse at 1 mg/kg,iv administration measured upto 24 hrs by LC-MS/MS analysis. The class given is ADME, organism-based. The following applies: in vivo, iv, 1 mg/kg, 24 h.
A short description of series [26]: AUC (0 to infinity) in BALB/c mouse at 10 mg/kg,po administration measured upto 24 hrs by LC-MS/MS analysis. The format is ADME, organism-based. The following applies: in vivo, po, 10 mg/kg, 24 h.
Series [27] in a line: MRT (0 to t) in BALB/c mouse at 1 mg/kg,iv administration measured upto 24 hrs by LC-MS/MS analysis. The format is ADME, organism-based. The following applies: in vivo.
A short description of series [28]: MRT (0 to t) in BALB/c mouse at 10 mg/kg,po administration measured upto 24 hrs by LC-MS/MS analysis. The format is ADME, organism-based. As to conditions: in vivo.
Series [29] can be described thus: MRT (0 to infinity) in BALB/c mouse at 1 mg/kg,iv administration measured upto 24 hrs by LC-MS/MS analysis. The following applies: in vivo. The class given is ADME, organism-based.
The nature of series [30]: MRT (0 to infinity) in BALB/c mouse at 10 mg/kg,po administration measured upto 24 hrs by LC-MS/MS analysis. The following applies: in vivo. The format is ADME, organism-based.
Series [31] is described as follows: Volume of distribution in BALB/c mouse at 1 mg/kg,iv administration measured upto 24 hrs by LC-MS/MS analysis. The class given is ADME, organism-based. As to conditions: in vivo.
Series [32] can be described thus: Clearance in BALB/c mouse at 1 mg/kg,iv administration measured upto 24 hrs by LC-MS/MS analysis. The class given is ADME, organism-based. The following applies: in vivo.
The nature of series [33]: Oral bioavailability in BALB/c mouse at 10 mg/kg administration measured upto 24 hrs by LC-MS/MS analysis. The class given is ADME, organism-based. As to conditions: in vivo, po, 10 mg/kg, 24 h.
Series [34] is described as follows: Plasma protein binding in BALB/c mouse at 1 mg/kg,iv administration measured upto 24 hrs by LC-MS/MS analysis. The class given is ADME, organism-based. The following applies: read-out: PPB (converted).
A short description of series [35]: Tmax in BALB/c mouse at 10 mg/kg,po administration measured upto 24 hrs by LC-MS/MS analysis. The format is ADME, organism-based. The following applies: in vivo.
Series [36] can be described thus: Drug concentration in BALB/c mouse plasma at 10 mg/kg,po administration measured within 15 mins by LC-MS/MS analysis. The class given is ADME, organism-based.
The nature of series [37]: Drug concentration in BALB/c mouse plasma at 10 mg/kg,po administration measured after 24 hrs by LC-MS/MS analysis. The class given is ADME, organism-based. As to conditions: in vivo.
Series [38] can be described thus: Free AUC in BALB/c mouse at 10 mg/kg,po administration measured upto 24 hrs by LC-MS/MS analysis. The format is ADME, organism-based. The following applies: in vivo.
The test system of another series is Cell membrane. Description: Disruption of cell membrane in methicillin resistant Staphylococcus aureus ATCC 33592 assessed as cell lysis at MIC incubated for 6 hrs by Scanning electron microscopic analysis. The format is cell membranes.

The structures appear in SMILES notation. Values after ≈ are worked out from the molar mass of the structure shown. Active and inactive are the calls of the source. The rule behind the calls is not given here.

In the case of `COC(=O)NC[C@@H]1OC(=O)N2Cc3cc(-c4ccc(C#N)cc4)c(F)cc3O[C@@H]12`, the MIC in [1] stood at 0.73 µg/mL (≈ 1.84 µM); in the series with Staphylococcus aureus [2], 2 µg/mL (≈ 5.03 µM); with Enterococcus faecalis [3], 0.25 µg/mL (≈ 0.629 µM); in the series on Bacillus subtilis, 0.063 µg/mL (≈ 0.159 µM); in [4] it was 0.032 µg/mL (≈ 0.0805 µM); with Staphylococcus aureus [6], 0.5 µg/mL (≈ 1.26 µM). Besides, the MIC with Staphylococcus aureus [7] was 0.5 µg/mL (≈ 1.26 µM); in [8], 0.125 µg/mL (≈ 0.315 µM); in [9], 0.125 µg/mL (≈ 0.315 µM); with Staphylococcus aureus [10] it was 0.5 µg/mL (≈ 1.26 µM); in the series with Enterococcus, 0.5 µg/mL (≈ 1.26 µM); in the series on Staphylococcus aureus [11] it was 8 µg/mL (≈ 20.1 µM). In addition, the MIC with Staphylococcus aureus [12] is 8 µg/mL (≈ 20.1 µM); in the series on Enterococcus faecalis [13], 2 µg/mL (≈ 5.03 µM); in the series with Enterococcus faecalis [14], 2 µg/mL (≈ 5.03 µM). Moreover, the IC50 at 48 h in [5] was more than 64 µg/mL. Moreover, the remaining at 1 h, 10 µM came to 112% in series [15], 108% in [16], 114% in [17] and 113% in series [18]. Further, the half-life in series [19] is 3.9 h; in [20], 49.3 h. Further, the Cmax in series [21] is 514 ng/mL; in [22], 2790 ng/mL. Further, the AUC(0-t) at 24 h in series [23] was 6810 ng·h/mL; in [24] it was 54300 ng·h/mL. Moreover, the figures for the AUC in [25] and in [26] were 6893 ng·h/mL and 188361 ng·h/mL, respectively. The MRT last at 24 h in series [27] was 8.1 h; in series [28], 11.3 h. For the same molecule, the MRT inf is 8.4 h in series [29] and 70.9 h in [30]. In series [31], this molecule registered a Vd of 0.818 L/kg. Besides, the clearance in [32] was 2.42 mL/min/kg. In series [33], this molecule returned an F of 79.8%. In addition, the fraction unbound at 24 h in series [34] was 0.174. Further, the Tmax in series [35] worked out at 4 h. The molecule also returned a concentration at 0.25 h in series [36] of 1000 ng/mL. Moreover, the Drug uptake in series [37] is listed as more than 60%. In series [38], the fAUC is 9450 ng·h/mL.
For the molecule `CCCCCCCCCC(=O)N[C@@H](Cc1c[nH]c2ccccc12)C(=O)N[C@H](CC(N)=O)C(=O)N[C@@H](CC(=O)O)C(=O)N[C@@H]1C(=O)NCC(=O)N[C@@H](CCCN)C(=O)N[C@@H](CC(=O)O)C(=O)N[C@H](C)C(=O)N[C@@H](CC(=O)O)C(=O)NCC(=O)N[C@H](CO)C(=O)N[C@@H]([C@H](C)CC(=O)O)C(=O)N[C@@H](CC(=O)c2ccccc2N)C(=O)O[C@@H]1C`, in the series with Cell membrane, the outcome was Active.
